Key:
[1] = tested on: Arabidopsis thaliana; experiment: Plant senescence triggered by salt stress, visual rating (Example 2); assay type: in vivo; parameters: key to Ratings at 14 days: 9: Normal growth, no leaf symptoms; 7: Nearly normal growth with some leaves and tips yellow and rolled; 4: Growth severely inhibited, significant yellowing of the leaves with most leaves rolled; 2: Complete growth arrest with most of the leaves dried and some plants dead; conditions: for % improvement: % senescence improvement relative to untreated control, 14 days; for Ratings at 14 days: visual leaf senescence score, salt stress 100, 200, 300 mM NaCl, percentages wt % of total composition
Experimental: In this example, the effect of metalized chlorin compounds and various additives on Arabidopsis thaliana senescence triggered by salt stress was measured by a visual rating scale reflecting progressive leaf senescence symptoms. […] It was also shown that the addition of oil, in particular poly-alpha-olefin (PAO), chelating agents or combinations thereof, further increased the protection. After prolonged exposure to salt stress, Na^+ accumulation in the shoot results in cytotoxic effects, whereby the most visible symptom is yellowing, followed by drying of leaves, due to leaf senescence and death. Leaf senescence may be evaluated by visual scoring reflecting progressive leaf senescence symptoms. [table] […] All percentage values in the Table are in wt % of total composition.

[2] = tested on: Arabidopsis thaliana seedlings; experiment: Primary root length of Arabidopsis seedlings under salt stress (Example 1); assay type: in vivo; conditions: for Root length (mm): 10 μM CuChln in media, 10 days after germination, mean ± standard error
Experimental: Experiments were conducted to evaluate the effect of metallized chlorin compounds on salt stress treated seedlings, by measuring of primary root length. Copper chlorophyllin (CuChIn) was supplemented to the media onto which Arabidopsis thaliana seeds germinated. […] For exposure to salt, media was adjusted to contain 100 mM NaCl. For exposure to CuChIn, CuChIn was prepared as a 1 mM stock in water and was added to the media at 10 μM CuChIn final concentration. […] Arabidopsis seedlings were grown vertically at a temperature of 24±1° C., under LED lights (PAR 24 μmol m^−2/s^−1) and 16 hours:8 hours, light:dark photoperiod. Salt stress tolerance was measured by determining the reduction of primary root lengths.

[3] = tested on: Arabidopsis seedlings; experiment: Pigment content under photooxidative conditions (Example 6); assay type: in vivo, Arabidopsis thaliana
Experimental: In this example, the effect of chlorin compounds on the pigment content of seedlings grown under photooxidative conditions was evaluated. In particular, the effect of CuChIn on the pigment content of Arabidopsis seedlings grown under photooxidative conditions was evaluated. To do so, the pigments were extracted and quantified. It was shown that CuChIn supplemented plants retained more pigments under this type of stress. […] In this experiment, to determine the effect of CuChIn on the pigment content, seedlings were grown as in Example 1, except that the plants were transferred under LED lights (PAR 142 μmol m^-2 s^-1) one week after germination. 14 days old seedlings were then harvested and weighted. The tissue was ground in liquid nitrogen. […] The pigment concentrations were determined spectrophotometrically and calculated using the following formulas known to those skilled in the art (i.e. Sumanta et al., 2014):Ch-a=16.72A665.2-9.16A652. (for chlorophyll a); Ch-b=34.09[…]=(1000A470-1.63Ca-104.96Cb)/221 (for carotenoids) and […]-(1⁄4×[…]) (for anthocyanins) (A=absorbance). The data is expressed as means±standard error.

[4] = tested on: tomato plants cv. Tumbling Tom; experiment: Tomato plants tolerance to drought stress (Example 9); assay type: in vivo; conditions: Table 9C
Experimental: In this example, the effects of chlorin compounds and formulations were tested on tomato plants cv. Tumbling Tom. The experiments were carried out in a greenhouse. Tests were designed to determine the activity of compounds on tomato plants tolerance to drought stress. In the experiments, tomato plants cv. […] Foliar treatments were applied 3 times with 7 days interval. 5 replications per treatment were used.

[5] = tested on: Tomato cultivar “Tiny Tim”; experiment: Tomato plant tolerance to heat stress (Example 19); assay type: in vivo; conditions: for Above ground plant biomass. Dry weight Total shoots / Roots dry weight / Above ground plant biomass, Fresh weight, Total shoots: heat stress 38° C., two foliar applications; for Above ground plant biomass. Dry weight Total shoots: harvest 27 days after first treatment, per plant; for Roots dry weight / Above ground plant biomass, Fresh weight, Total shoots: tomato; for Above ground plant biomass, Fresh weight, Total shoots: 27 days after first treatment; for Roots dry weight, % increase / Total shoots dry weight % increase / Total shoots fresh weight, % increase: vs Heat stress Control
Experimental: In this example, the effects of chlorin compounds and formulations were tested on Tomato cultivar “Tiny Tim” (Stokes seeds, Ontario, Canada). Several experiments were conducted in the greenhouse and Growth Chamber. The tests were designed to determine the activity of compounds on tomato plants tolerance to heat stress. In the experiments, Tomato transplants were grown in 6″ plastic pots filled with professional soil mix to 5-6 leaves stage in the greenhouse at 22° C.-25° C. and 8 h dark/16 h light photoperiod respectively. […] The Tomato plants were treated with two foliar applications of different formulations providing an even coverage (until run-off) using hand hold Spray bottle (Continental E-Z sprayer). Plants were treated with compounds two times with 7 days interval. Twenty four hours after the first foliar spray plants were placed into a Growth chamber and exposed to temperature stress (heat stress) for 10 days. […] After second foliar spray plants were placed for a second time into the Growth chamber and exposed to temperature stress (heat stress) for another 10 days. The Tomato plants were regularly watered to avoid water deficit. The Growth chamber was set at 16 h light/8 h dark photoperiod, illumination at 300 μmol·m^−2 s^−1 during the light photoperiod and 70% relative humidity. Temperature regime in the Growth chamber was set at 25° C. during the dark. […] Plants were moved from the Growth Chamber to the greenhouse and maintained in the greenhouse for four days prior to harvest. Twenty-seven days after the first treatment, plants were harvested, and biomass were recorded. Untreated plants—Heat stress Control was used as a reference for each measurement respectively. The experiments were set out in a completely randomized design with 6 replications for each treatment.

[6] = tested on: Arabidopsis thaliana; experiment: Effect of different oil on Arabidopsis senescence under salt stress (Example 24); conditions: in vivo
Experimental: The experimental protocol is the same as that of Example 2. In this example, the effect of metalized chlorin compounds and various oils on Arabidopsis thaliana senescence triggered by salt stress was measured by a visual rating scale reflecting progressive leaf senescence symptoms. […] It was also shown that the addition of oil further increased the protection. After prolonged exposure to salt stress, Na^+ accumulation in the shoot results in cytotoxic effects, whereby the most visible symptom is yellowing, followed by drying of leaves, due to leaf senescence and death. Leaf senescence may be evaluated by visual scoring reflecting progressive leaf senescence symptoms.

[7] = tested on: white clover (Trifolium repens) seedlings; experiment: Primary root length of white clover seedlings under salt stress (Example 3); assay type: in vivo; conditions: porphyrin 0.01% v/v, 7 days after germination, mean ± standard error
Experimental: In this example, the effect of porphyrin compounds on the sensitivity to salt stress of seedlings was evaluated. […] For exposure to salt, the water was adjusted to contain 100 mM NaCl. […] Salt stress tolerance was measured by determining the reduction of primary root length by analysis of pictures with the Image J™ software. Root lengths (mm) were measured 7 days after the germination. The following Table 3 summarizes the results.

[8] = 20 μM CuChln, photooxidative conditions, 14 days old seedlings, mean ± standard error
[9] = foliar spray, vs drought control

O=C([O-])CC(NC(CC(=O)[O-])C(=O)[O-])C(=O)[O-].[Na+].[Na+].[Na+].[Na+] (stereo not shown) [0.25% Baypure CX100 ™, tetrasodium iminodisuccinate]
% improvement [1]: 14.4% | Ratings at 14 days [1]: 4

O=C(O)CC(NCCNC(CC(=O)O)C(=O)O)C(=O)O (stereo not shown) [5 mM EDDS, ethylenediamine-N,N′-disuccinic acid, reference compound]
% improvement [1]: 14.4% | Ratings at 14 days [1]: 4

copper chlorophyllin [CuChln]
Root length (mm) ([2]; 0 mM NaCl): 5.05 ± 0.09 mm | influence on root length in the control experiment ([2]; 10 μM CuChIn, no salt): did not influence the root length | Root length (mm) ([2]; 100 mM NaCl): 3.16 ± 0.14 mm | salt tolerance vs untreated plants ([2]; CuChIn supplemented media): more salt tolerant than untreated plants | % improvement [1]: 28.7% | protection against senescence triggered by salt stress ([1]; in vivo): provides protection against plants senescence triggered by salt stress | Ratings at 14 days [1]: 4.5 | Anthocyanins [3, 8]: 0.08 ± 0.05 µg/mL | Ch-a [3, 8]: 6.62 ± 0.8 µg/mL | Ch-b [3, 8]: 2.28 ± 0.14 µg/mL | Cx + c (carotenoids) [3, 8]: 1.56 ± 0.25 µg/mL | pigments retained under photooxidative conditions ([3]; in vivo): retain more pigments than untreated plants | Shoots Dry weight % increase [4, 9]: 4% | Shoots Fr. weight % increase [4, 9]: 29.6% | Plant vigor Score 1-5 ([4]; prolonged drought, foliar spray 3 times): 4.6 | Shoots Fr. weight ([4]; prolonged drought, foliar spray 3 times with 7 days interval, Rate, %: CuChln 0.1, PAO488 + CuChln 0.5 + 0.1): 8.7 g | Shoots Dry weight ([4]; prolonged drought, foliar spray 3 times, Rate, %: CuChln 0.1, PAO488 + CuChln 0.5 + 0.1): 0.84 g | Above ground plant biomass. Dry weight Total shoots [5]: 4.92 g | Roots dry weight [5]: 1.17 g/plant−^1 | Above ground plant biomass, Fresh weight, Total shoots [5]: 37.17 g/plant^−1 | Roots dry weight, % increase [5]: 26% | Total shoots dry weight % increase [5]: 10% | Total shoots fresh weight, % increase [5]: 11% | protection against senescence triggered by salt stress [6]: provided protection against senescence triggered by salt stress

C=CC1=C(C)c2cc3[n-]c(cc4[n-]c(cc5nc(cc1n2)C(C)=C5C=C)c(C)c4CCC(=O)O)c(CCC(=O)O)c3C.[Zn+2] [ZnPP9, zinc protoporphyrin-IX]
Root length (mm) ([7]; 0 mM NaCl): 1.01 ± 0.08 mm | Root length (mm) ([7]; 100 mM NaCl): 0.8 ± 0.08 mm

C=CC1=C(C)c2cc3[nH]c(cc4nc(cc5[nH]c(cc1n2)c(C)c5CCC(=O)O)C(CCC(=O)O)=C4C)c(C)c3C=C [PP9, protoporphyrin-IX]
Root length (mm) ([7]; 0 mM NaCl): 1.04 ± 0.05 mm | Root length (mm) ([7]; 100 mM NaCl): 0.7 ± 0.08 mm

O=C([O-])CN(CCN(CC(=O)[O-])CC(=O)[O-])CC(=O)[O-].[Ca+2].[Ca+2] [0.05% Ca2EDTA, reference compound]
Above ground plant biomass. Dry weight Total shoots [5]: 4.72 g | Roots dry weight [5]: 1.07 g/plant−^1 | Above ground plant biomass, Fresh weight, Total shoots [5]: 34.62 g/plant^−1 | Roots dry weight, % increase [5]: 15% | Total shoots dry weight % increase [5]: 6% | Total shoots fresh weight, % increase [5]: 3%

ethylenediaminetetraacetic acid-Ca [reference compound]
% improvement [1]: 14.4% | Ratings at 14 days [1]: 4
